Results on four compounds are retold here after patent US12480950B2, “AKT-specific capture agents, compositions, and methods of using and making” (California Institute of Technology, priority 2011, dated 2025).

Test [1] has as its target T1, Akt (Homo sapiens, UniProt P31751).
T1 construct: endogenous in cells; host or cells: OVCAR3
Description: Detection of Akt from OVCAR3 cell lysate by anti-Ser474 Akt2 capture agents. The test is classed as binding. The text has this: The characteristics of this best ligand were improved through use of sequential in situ click chemistry, as described in Capture Agents and Related Compositions, Methods, and Systems CIT 5164-P; and Akt-Specific Capture Agents, Compositions, and Methods of Using and Making. CIT 5917-P, Agnew, et al., Angew. Chem. 121, p 5044-5048 (2009), and Millward, et al., J. Am. Chem. Soc. 133, 1820 (2011), incorporated herein by reference in their entireties. For these steps, the capture agent that was identified in Steps (1)-(4) was improved into a biligand (FIG. 36b), and then a triligand (FIG. 36c).

The subject of test [2] is Akt. Description: Immunofluorescent imaging of Akt in fixed OVCAR3 cells. The format is cell-based. The settings on record: unstimulated or EGF-treated. As for the experimental part: OVCAR3 cells were grown on polylysine coated coverslips and treated with either 500 ng/mL EGF (Sigma) or vehicle control for 10 minutes. Cells were then fixed with 10% formaldehyde for 15 min at 37° C., washed with PBS, permeablized by incubating with 0.1% Triton X-100 for 10 min at room temperature, and blocked with 5% goat serum. Permeabilized cells were stained with either a fluorescein-conjugated Pan Akt antibody (R&D Systems IC2055F, 10 μg/mL) overnight or 1 μM fluorescein conjugated biligand for 1 hour. Images were acquired using a Zeiss Pascal 5 Laser Scanning Microscope (Caltech Biological Imaging Center) and surface plots were generated with ImageJ software (NIH). For this assay, Akt was expected to locate to the cell membrane following stimulation of a receptor tyrosine kinase such as epidermal growth factor receptor (EGFR) by its ligand (EGF). Images of unstimulated and stimulated cells clearly reveal that this was the case (FIG. 18).

Another test concerns the target T2, Akt2 (Homo sapiens, UniProt P31751).
T2 construct: purchased Abcam
Description: Akt2 kinase activity assay, p-GSK-3a/b Western blot. The test is classed as biochemical. Conditions: p-GSK-3a/b abundance, active Akt2. An excerpt:
PCC compositions, developed using the epitope targeting strategy, make non-traditional enzyme inhibitors. If Akt2 is activated by phosphorylation of Ser474 then, in that state, it phosphorylates GSK-3a/b. If it is further activated via a steric effect, then it will produce more p-GSK-3a/b. If that same Akt2 is inhibited, then it will produce less p-GSK-3a/b. Thus, the signature of Akt inhibition (or activation) is read out as p-GSK-3a/b abundance, relative to the DMSO control. Assays are shown at right in the form of Western Blots. The DMSO column gives the baseline level. The n-terminal triligand the biligand, the dimer of the n-terminal triligand, and the commercial monoclonal antibody all activate Akt relative to DMSO. The c-terminal triligand inhibits Akt. The ‘hi’ and ‘low’ blots correspond to long and short development times, respectively. The Akt2 protein used for the inhibition assay is active Akt2 that is phosphorylated at Thr308, and is at least partially phosphorylated at Ser474, since the antibody for pSer474 detects the pSer474.

Another test has as its target T3, GSK3β (Homo sapiens, UniProt P49841).
T3 construct: a set of His-tagged active protein kinase domains from the AGC family; purchased Invitrogen
Description: Specificity ELISA, immobilized ligand probed with His-tagged kinases. Conditions: A450 normalized to Akt1-S473E binding. As for the experimental part:
(§1) Biotinylated ligand was immobilized on Streptavidin plates and probed with 25 nM His-tagged kinase followed by anti-Histag antibody-HRP conjugate. Values represent the mean A450 obtained from three experiments after normalization to Akt1-S473E binding. The error bars show the standard error.
(§2) The specificity of the anchor ligand, biligand, and triligand developed in Example 1 was analyzed using a battery of protein kinases. […] Akt1-S473E was expressed and purified as described above.
(§3) The relative affinity of each kinase was determined by probing with an anti-His6 antibody and normalizing the response to Akt1-S473E. All proteins were diluted in Akt blocking buffer to a final concentration of 24 nM prior to use. Ligands were diluted in Akt blocking buffer to a final concentration of 2.5 μM prior to use. 100 μL of each ligand (250 pmol) was added to each well of a HBC streptavidin-coated 96-well plate. The ligands were bound at 4° C. for 1 hour followed by addition of D-biotin to a final concentration of 500 μM. After 10 minutes at 4° C., the wells were washed three times with Akt blocking buffer and blocked overnight in 5% non-fat milk.
(§4) The wells were washed three times in Akt blocking buffer and 50 μL of active protein was applied to each well. After binding for 120 minutes at 4° C., the wells were washed three times in Akt blocking buffer to remove unbound protein. 50 μL of horseradish peroxidase-conjugated Anti-His6 antibody was added at a dilution of 1:100 (His Probe (H-3) HRP conjugate, Santa Cruz Biotechnology). The antibody-HRP conjugate was incubated for 60 minutes and the wells were washed 3 times in TBST and once in TBS. 50 μL of peroxidase substrate (KPL) was added and the resulting color change was quenched with 50 μL 1 M H2SO4. The A450 measured on a 96-well plate reader. […] The mean value for the triplicates was calculated and plotted and the error bars were generated from the standard error of the mean (GraphPad Prism).

The subject of another test is Akt1. Described as above. Details: species or system H. sapiens. Conditions: A450 normalized to Akt1-S473E binding; kinase panel. As for the experimental part: as §1, §2, §3, §4
For the next test, the target named is Akt1-S473E. Conditions: SPR, from kinetic parameters, 10° C., Akt1-S473E 9000 nM to 1 nM.
The test system of test [3] is Akt-S473E. Description: ELISA with immobilized Akt-S473E, relative affinity of biotinylated ligands. The format is binding, H. sapiens. The settings on record: triligand versus biligand.
Description: Akt-S473E was immobilized on Ni-NTA plates and incubated with varying concentrations of biotinylated peptide. All values were normalized to the binding observed at saturation.
The affinity of the anchor ligand, biligand, and triligand developed in Example 1 was determined by ELISA with immobilized Akt-S473E.
3 μg of Akt-S473E was added to each well in a HisSorb Ni-NTA plate (Qiagen) in 50 μL of ELISA blocking buffer (25 mM Tris-Cl (pH=7.5), 150 mM NaCl, 10 mM MgCl2, 0.1% (v/v) Tween-20, and 4 mg/mL BSA). 50 μL of imidazole blocking buffer (25 mM Tris-Cl (pH=7.5), 150 mM NaCl, 10 mM MgCl2, 0.1% (v/v) Tween-20, 100 mM imidazole, and 4 mg/mL BSA) was added to the control wells. After 18 hours at 4° C., the wells were washed with ELISA blocking buffer and 50 μL of each ligand dilution was added in ELISA blocking buffer. The ligands were bound at 4° C. for 120 minutes followed by three washed in ELISA blocking buffer. 50 μL of horseradish peroxidase-conjugated streptavidin (SA-HRP, Thermo) was added (1:5000 dilution in ELISA blocking buffer) and incubated for 70 minutes at 4° C. […] 50 μL of peroxidase substrate (KPL) was added to generate the final signal which was quenched in 1 M H2SO4 and quantitated on a 96-well plate reader at X=450 nm. The Net A450 was calculated by subtracting the A450 of each blank well (No Akt-S473E) from the experimental well. […]
Another test has as its target Akt1-S473E-T308P. The text has this:
FIG. 22A: Velocity vs. [Peptide substrate] with varying concentration of inhibitory triligand. FIG. 22B: Velocity vs. [ATP] with varying concentration of inhibitory triligand.
FIGS. 23A-23D show determination of Ki′ and inhibition mode for triligand with respect to peptide substrate. FIG. 23A: Plot of 1/KM(app) vs. [Triligand]. KM(app) were obtained from nonlinear regression analysis of velocity vs. [Peptide] curves obtained with varied concentrations of triligand (Graphpad). The error bars represent the standard error of KM(app) by nonlinear regression. 95% confidence intervals are shown as dotted lines. […] FIG. 23B: Plot of 1/Vmax(app) vs. [Triligand]. Values for Vmax(app) and standard error were obtained by nonlinear regression as described above. […] FIG. 23C: Dixon plot of 1/v vs. [Triligand] at various [Peptide]. Data from low peptide concentrations were removed to account for possible substrate depletion. […] FIG. 23D: Cornish-Bowden plot of [Peptide]/v vs. [Triligand] at various [Peptide]. The intersection of the lines gives the −Ki′.
FIG. 24A: Plot of 1/KM(app) vs. [Triligand]. KM(app) were obtained from nonlinear regression analysis of velocity vs. [ATP] curves obtained with varied concentrations of triligand (Graphpad). The error bars represent the standard error of KM(app) by nonlinear regression. […] FIG. 24B: Plot of 1/Vmax(app) vs. [Triligand]. […] FIG. 24C: Dixon plot of 1/v vs. [Triligand] at various [ATP]. Data from low ATP concentrations were removed due high counting error resulting from low counts per minute (cpm).
Two standard enzyme kinetic assays were carried out to determine the mode of Akt1 inhibition by the triligand (Segel 1975). For these assays, the kinase activity is measured under varying substrate and triligand concentrations. The resulting data can be interpreted so that the nature of the competition between the triligand and the substrate for the relevant kinase binding site is determined. For example, if the triligand and ATP competed for the same binding pocket, the maximum velocity (Vmax) of the kinase would be unchanged while the Michaelis constant (KM) would increase. The plots can also be used as a means of determining the inhibition constant (Ki) of the triligand.
Akt-S473E-T308P was prepared by incubating 75 μg Akt-S473E with 1 μg PDK1 (Sigma) in the presence of 500 μM ATP in 1× reaction buffer (25 mM Tris-Cl (pH=7.5), 10 mM MgCl2, 2 mM DTT, 1× protease inhibitors (Roche), 1× phosphatase inhibitors (Roche)). The phosphorylation reaction proceeded for 40 minutes at room temperature followed by addition of 25 mM EDTA. The quenched reaction was added to 40 μL Anti-FLAG M2 agarose (Sigma) and allowed to bind for 2 hr at 4° C. The resin was washed in FLAG Wash Buffer (20 mM HEPES (pH=7.4), 150 mM NaCl, 1× protease inhibitors (Roche), 1× phosphatase inhibitors (Roche)) and the Akt1-S473E-T308P eluted with FLAG Elution Buffer (FLAG wash buffer+0.15 mg/mL 3×FLAG peptide) for 30 minutes at room temperature. The concentration of protein was determined by Bradford assay.

Another test has as its target MEK1 (Homo sapiens, UniProt Q02750). The settings on record: A450 normalized to Akt1-S473E binding. As for the experimental part:
as §1, §2
The relative affinity of each kinase was determined by probing with an anti-His6 antibody and normalizing the response to Akt1-S473E. All proteins were diluted in Akt blocking buffer to a final concentration of 24 nM prior to use. Ligands were diluted in Akt blocking buffer to a final concentration of 2.5 μM prior to use. 100 μL of each ligand (250 pmol) was added to each well of a HBC streptavidin-coated 96-well plate. The ligands were bound at 4° C. for 1 hour followed by addition of D-biotin to a final concentration of 500 μM. […]
The wells were washed three times in Akt blocking buffer and 50 μL of active protein was applied to each well. […] The A450 measured on a 96-well plate reader. […] The mean value for the triplicates was calculated and plotted and the error bars were generated from the standard error of the mean (GraphPad Prism).

Test [4] has as its system Akt-S473E. The settings on record: [2H10] antibody directed toward the C-terminus. An excerpt: Immobilized anchor, biligand, and triligand were probed with varying concentrations of […]. Binding was detected by an anti-Akt1 monoclonal antibody ([2H10]) followed by an anti-mouse secondary antibody-HRP conjugate. The fraction bound was normalized and plotted against the concentration of Akt-S473E on a log scale.
The C-terminus is effectively on the “backside” of the kinase domain, opposite the active site.

The test system of test [5] is Akt. Briefly: Immunoprecipitation of Akt from OVCAR3 cell lysates with immobilized ligands. The test is classed as binding. Conditions: EGF and insulin induced or control, Western blot with pan-Akt antibody.
Description: A representative 12% gel stained with Coomassie and imaged. Lane 1: Lysate, Lane 2: Anchor resin, Lane 3: Biligand resin, Lane 4: Triligand resin, Lane 5: 5G3 mAb resin.
After 18 hours at 4° C., resins were washed exhaustively, eluted with SDS-PAGE sample buffer, and analyzed by Western blotting. 1. Blank resin, 2. Anchor, 3. Biligand, 4. Triligand, 5. [5G3] mAb, L. lysate.
For the IP experiments, the anchor, biligand, and triligands were immobilized on streptavidin-agarose, and each resin was panned with OVCAR3 cell lysates obtained from untreated cells or cells stimulated with a combination of epidermal growth factor (EGF) and insulin.
OVCAR3 cells were grown in RPMI-1640 media containing 10% fetal bovine serum, penicillin, and streptomycin. Passage 4 cells were grown to ˜60% confluence and treated with insulin and EGF at final concentration of 10 μg/mL and 20 ng/mL respectively (induced) or mock treated (control). Cells were grown for an additional 24 hours and then lysed with lysis buffer (10 mM Tris-Cl (pH=7.5), 100 mM NaCl, 1% (v/v) Triton X-100, 0.1% SDS (w/v), 0.5% deoxycholate, 1 mM DTT, 1 mM EDTA, 1× PhosStop phosphatase inhibitors (Roche), 1× Complete protease inhibitors (Roche). Cell lysate protein concentrations were determined by Bradford assays. […]

Where two headings read alike, the source gives them in different places. Bridge positions count the residues as written; N and C are the ends. Square brackets hold non-standard residues; d marks the D form. Ends that are not written are not given here. I, II: the chains in the order shown. dPra = C#CC[C@@H](N)C(=O)O; C8N3 = not defined here

T2 sequence (P31751 whole entry, species assumed): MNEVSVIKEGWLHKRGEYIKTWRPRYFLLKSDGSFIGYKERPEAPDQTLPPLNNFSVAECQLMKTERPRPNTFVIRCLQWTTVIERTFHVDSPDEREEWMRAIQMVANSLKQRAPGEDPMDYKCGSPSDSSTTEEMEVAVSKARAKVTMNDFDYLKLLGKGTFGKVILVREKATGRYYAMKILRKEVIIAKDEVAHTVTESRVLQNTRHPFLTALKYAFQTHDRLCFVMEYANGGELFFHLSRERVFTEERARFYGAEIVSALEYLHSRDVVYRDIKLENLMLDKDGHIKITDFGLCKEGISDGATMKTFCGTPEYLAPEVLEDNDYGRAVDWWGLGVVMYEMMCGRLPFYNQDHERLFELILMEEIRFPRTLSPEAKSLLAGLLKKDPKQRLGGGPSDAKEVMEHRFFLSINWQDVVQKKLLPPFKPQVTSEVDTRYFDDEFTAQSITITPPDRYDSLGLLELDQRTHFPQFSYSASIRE
T1 sequence (P31751 whole entry): as the sequence (P31751 whole entry, species assumed) above
T3 sequence (P49841 56-340 limits assumed, species assumed): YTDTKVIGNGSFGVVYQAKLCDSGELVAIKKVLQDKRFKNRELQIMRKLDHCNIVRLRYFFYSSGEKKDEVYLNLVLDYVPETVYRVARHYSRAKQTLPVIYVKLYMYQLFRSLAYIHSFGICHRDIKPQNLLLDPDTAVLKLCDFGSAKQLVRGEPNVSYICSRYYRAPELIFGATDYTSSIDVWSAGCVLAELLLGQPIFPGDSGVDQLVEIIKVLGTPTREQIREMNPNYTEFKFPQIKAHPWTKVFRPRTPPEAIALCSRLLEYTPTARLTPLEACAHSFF
Sequence of MEK1 (Q02750 68-361 limits assumed, species assumed): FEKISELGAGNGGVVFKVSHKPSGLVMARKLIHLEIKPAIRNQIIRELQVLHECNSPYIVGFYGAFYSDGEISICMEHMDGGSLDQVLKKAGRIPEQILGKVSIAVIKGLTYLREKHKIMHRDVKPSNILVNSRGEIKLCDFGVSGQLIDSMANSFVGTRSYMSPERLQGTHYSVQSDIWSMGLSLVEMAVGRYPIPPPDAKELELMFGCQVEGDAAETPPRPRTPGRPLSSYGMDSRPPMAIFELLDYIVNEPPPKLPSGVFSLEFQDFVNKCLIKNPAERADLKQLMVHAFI

For “monoligand: peptide wkvkl (SEQ ID NO:4) coupled to Ac2-Tz4-PEG2-Biotin; targeted against Ser474 of Akt2 ([dW][dK][dV][dK][dL]-NH2; not fully specified (N-terminus); printed as wkvkl; also: coupled to Ac2-Tz4-PEG2-Biotin)”, the “detection of Akt from cell lysate” value with Akt [1] is given as “able to detect Akt from cell lysate”.

For the compound “fluorescein-conjugated biligand: biligand with fluorescein derivative on the amino terminus of the secondary peptide (FIG. 17) (chain 1 C8N3-VFYRLGY-NH2; chain 2 FWFLRG-NH2; triazole I:N-II:N; not fully specified (N-terminus); reading uncertain; also: triazole linkage between chains, fluorescein on amino terminus of secondary peptide)”, the “imaging of Akt localisation” value with Akt [2] is given as “distinguishes cytoplasmic or membrane-bound AKT”.

For the compound “dimer of the n-terminal triligand: dimerized n-terminal triligand targeted against Ser474 of Akt2 (FIG. 36E) (peptide 1 [dPra][dW][dK][dV][dK][dL]; peptide 2 FYGNH; peptide 3 YYRFG; numbers in words are those of the source; also: dimer of triligand, chains 2 and 3 stereochemistry not given here)”, the “effect on Akt kinase activity relative to DMSO” value with Akt2 is reported as “activate Akt”.

As for `CCC(C)[C@H](NC(=O)[C@H](CCCNC(=N)N)NC(=O)[C@H](CCC(=O)O)NC(=O)[C@H](Cc1cnc[nH]1)NC(=O)[C@H](CCCNC(=N)N)NC(=O)C(CCCCCCCCn1cc(CCCC(=O)NC(CCCCCCCCn2cc(C[C@H](NC(C)=O)C(=O)N[C@@H](Cc3ccccc3)C(=O)N[C@@H](Cc3c[nH]c4ccccc34)C(=O)N[C@@H](Cc3ccccc3)C(=O)N[C@@H](CC(C)C)C(=O)NC(CCCNC(=N)N)C(=O)NCC(N)=O)nn2)C(=O)N[C@H](C(=O)N[C@@H](Cc2ccccc2)C(=O)N[C@@H](Cc2ccc(O)cc2)C(=O)N[C@@H](CCCNC(=N)N)C(=O)N[C@@H](CC(C)C)C(=O)NCC(=O)N[C@@H](Cc2ccc(O)cc2)C(=O)NCCNC(=O)CCCCC2SCC3NC(=O)NC32)C(C)C)nn1)NC(C)=O)C(N)=O` (some centres unmarked) [triligand], the “binding to GSK3β” value at GSK3β is given as “significantly reduced”. For the same compound, in the test with Akt1, the “specificity / selectivity for Akt1” value is on record as “selectivity for Akt1 is clearly enhanced”. This compound also had a Kd at Akt1-S473E of 0.2 µM. Further, the affinity gain in the test on Akt-S473E [3] is on record as 2-3 fold. Moreover, the Ki at Akt1-S473E-T308P (V vs. [ATP], variable [Triligand], Dixon plot, mean ± standard deviation) came out at 4 µM; on Akt1-S473E-T308P (V vs. [Peptide], variable [Triligand], Dixon plot, mean ± standard deviation), 2.6 µM; on Akt1-S473E-T308P (read-out: X-intercept of 1/Vmax(app) vs. [Triligand], varied ATP, wide error range based on the 95% CI), 5.8 µM; at Akt1-S473E-T308P (read-out: X-intercept of 1/Vmax(app) vs. [Triligand], varied peptide substrate), 1.7 µM. Also, the “X-intercept (−Ki′) of 1/KM(app) vs. [Triligand]” value in the test on Akt1-S473E-T308P (varied peptide substrate) worked out at 3.6 µM. Besides, the results for the Inhibition mode entry with Akt1-S473E-T308P (with respect to ATP) and in the test with Akt1-S473E-T308P (with respect to peptide substrate) were “Noncompetitive” and “Uncompetitive”, respectively. Besides, on MEK1, the “off-target binding to MEK1” value is “completely eliminated”. Moreover, the “overlap of binding site with anti-Akt1 antibody” value in the test on Akt-S473E [4] is “may partially overlap”. Also, in the test with Akt [5], the “immunoprecipitation of Akt” value is listed as “somewhat increased immunoprecipitation of Akt relative to the biligand in induced cell lysates but not in the non-induced control cell lysate”.
